Assay results from patent US20090304692A1, “TRIAZINE COMPOUNDS AS PI3 KINASE AND MTOR INHIBITORS” (Wyeth, priority 2008, published 2009).
Where two headings read alike, the source gives them in different places.

Legend:
Human mTOR (FLAG-TOR) = Human mTOR (FLAG-TOR) (Homo sapiens, UniProt P42345); assay: mTOR kinase assay (DELFIA format, purified enzyme); type: biochemical; conditions: read-out: IC50 mTOR
PI3K-α = PI3K-α (Homo sapiens, UniProt P42336); assay: PI3K-alpha fluorescence polarization assay
Sequence of PI3K-α (P42336 whole entry, species assumed): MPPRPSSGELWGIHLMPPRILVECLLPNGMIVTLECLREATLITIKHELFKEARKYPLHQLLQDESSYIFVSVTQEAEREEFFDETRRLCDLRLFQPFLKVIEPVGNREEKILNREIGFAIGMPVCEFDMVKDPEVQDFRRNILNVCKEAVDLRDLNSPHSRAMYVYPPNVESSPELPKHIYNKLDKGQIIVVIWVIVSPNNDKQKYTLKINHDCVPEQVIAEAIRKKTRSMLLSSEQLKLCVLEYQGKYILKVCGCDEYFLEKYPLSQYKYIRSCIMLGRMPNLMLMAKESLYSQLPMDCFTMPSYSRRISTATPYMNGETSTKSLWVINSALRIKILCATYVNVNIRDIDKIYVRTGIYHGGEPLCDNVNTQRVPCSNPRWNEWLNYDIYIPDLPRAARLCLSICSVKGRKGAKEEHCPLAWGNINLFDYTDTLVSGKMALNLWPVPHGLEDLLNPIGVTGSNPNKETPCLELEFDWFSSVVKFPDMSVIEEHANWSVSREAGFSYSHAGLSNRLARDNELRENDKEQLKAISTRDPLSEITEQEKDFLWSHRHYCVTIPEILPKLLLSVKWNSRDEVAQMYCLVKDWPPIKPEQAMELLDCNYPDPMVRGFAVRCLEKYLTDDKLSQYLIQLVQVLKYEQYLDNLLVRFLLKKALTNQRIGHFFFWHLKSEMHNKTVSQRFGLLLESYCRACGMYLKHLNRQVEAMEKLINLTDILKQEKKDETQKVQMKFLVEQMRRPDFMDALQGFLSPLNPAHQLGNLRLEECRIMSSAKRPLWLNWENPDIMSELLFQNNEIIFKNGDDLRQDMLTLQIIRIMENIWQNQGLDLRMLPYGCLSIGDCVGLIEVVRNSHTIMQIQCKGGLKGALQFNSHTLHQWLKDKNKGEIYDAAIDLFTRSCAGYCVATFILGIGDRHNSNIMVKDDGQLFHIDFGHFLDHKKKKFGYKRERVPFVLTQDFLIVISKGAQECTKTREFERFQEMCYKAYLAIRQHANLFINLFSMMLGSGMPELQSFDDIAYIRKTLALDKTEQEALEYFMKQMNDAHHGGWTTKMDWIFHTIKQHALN
Sequence of PI3K-α (P27986 whole entry partner, species assumed): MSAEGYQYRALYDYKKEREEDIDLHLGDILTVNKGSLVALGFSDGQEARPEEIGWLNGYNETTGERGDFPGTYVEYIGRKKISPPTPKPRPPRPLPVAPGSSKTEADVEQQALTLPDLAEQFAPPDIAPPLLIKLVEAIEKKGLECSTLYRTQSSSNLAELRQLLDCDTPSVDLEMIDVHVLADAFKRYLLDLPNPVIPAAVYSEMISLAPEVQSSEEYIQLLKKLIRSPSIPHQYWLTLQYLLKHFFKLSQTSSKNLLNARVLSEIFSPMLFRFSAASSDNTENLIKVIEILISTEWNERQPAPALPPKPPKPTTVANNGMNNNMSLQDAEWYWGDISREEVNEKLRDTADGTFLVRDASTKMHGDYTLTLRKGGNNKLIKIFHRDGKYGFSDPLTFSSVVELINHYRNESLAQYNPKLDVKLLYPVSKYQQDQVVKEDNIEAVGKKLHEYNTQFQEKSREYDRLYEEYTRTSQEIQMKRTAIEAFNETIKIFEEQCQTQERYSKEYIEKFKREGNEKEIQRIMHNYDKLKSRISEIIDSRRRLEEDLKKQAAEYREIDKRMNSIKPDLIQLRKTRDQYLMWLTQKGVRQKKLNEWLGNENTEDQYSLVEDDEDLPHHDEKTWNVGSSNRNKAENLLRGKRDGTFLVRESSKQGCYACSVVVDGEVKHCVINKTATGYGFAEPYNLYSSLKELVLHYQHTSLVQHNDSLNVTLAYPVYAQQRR

[1] = system: human prostate LNCap tumor cell line; assay: In vitro cell culture growth assay (MTS), LNCap; conditions: read-out: IC50 LNCap
PI3K-γ = PI3K-γ (Homo sapiens, UniProt P48736); assay: PI3K-gamma fluorescence polarization assay; conditions: read-out: IC50 PI3Kγ
Sequence of PI3K-γ (P48736 whole entry, species assumed): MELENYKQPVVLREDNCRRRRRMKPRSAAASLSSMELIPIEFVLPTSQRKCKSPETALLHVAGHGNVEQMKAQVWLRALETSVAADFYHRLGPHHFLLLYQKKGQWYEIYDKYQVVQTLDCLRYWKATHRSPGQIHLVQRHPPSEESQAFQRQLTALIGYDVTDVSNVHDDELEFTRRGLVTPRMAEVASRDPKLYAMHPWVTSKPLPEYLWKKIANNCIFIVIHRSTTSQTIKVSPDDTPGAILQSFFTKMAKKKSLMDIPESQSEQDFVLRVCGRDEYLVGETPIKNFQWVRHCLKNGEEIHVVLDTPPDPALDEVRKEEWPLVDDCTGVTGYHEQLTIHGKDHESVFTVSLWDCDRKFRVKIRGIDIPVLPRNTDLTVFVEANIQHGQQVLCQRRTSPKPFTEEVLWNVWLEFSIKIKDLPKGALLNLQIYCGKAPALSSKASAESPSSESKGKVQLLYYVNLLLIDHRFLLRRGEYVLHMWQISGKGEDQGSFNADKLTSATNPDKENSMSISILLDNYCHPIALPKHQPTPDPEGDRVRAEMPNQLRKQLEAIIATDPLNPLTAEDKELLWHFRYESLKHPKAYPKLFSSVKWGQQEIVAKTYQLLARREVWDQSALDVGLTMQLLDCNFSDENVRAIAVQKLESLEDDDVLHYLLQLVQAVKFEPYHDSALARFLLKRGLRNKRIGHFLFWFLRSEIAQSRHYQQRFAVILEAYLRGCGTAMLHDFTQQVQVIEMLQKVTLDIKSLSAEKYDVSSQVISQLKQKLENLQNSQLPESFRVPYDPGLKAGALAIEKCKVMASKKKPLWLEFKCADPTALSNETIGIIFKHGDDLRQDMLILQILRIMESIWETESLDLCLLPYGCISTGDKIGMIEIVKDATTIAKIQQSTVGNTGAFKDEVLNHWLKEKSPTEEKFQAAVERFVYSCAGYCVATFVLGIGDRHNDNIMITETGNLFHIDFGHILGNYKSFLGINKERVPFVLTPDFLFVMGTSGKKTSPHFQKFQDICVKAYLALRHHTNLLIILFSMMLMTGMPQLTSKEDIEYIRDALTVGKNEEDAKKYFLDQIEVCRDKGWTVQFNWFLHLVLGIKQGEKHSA

[2] = MTS cell growth assay, three days after drug treatment

Sequence of Human mTOR (FLAG-TOR) (P42345 1360-2549 limits assumed): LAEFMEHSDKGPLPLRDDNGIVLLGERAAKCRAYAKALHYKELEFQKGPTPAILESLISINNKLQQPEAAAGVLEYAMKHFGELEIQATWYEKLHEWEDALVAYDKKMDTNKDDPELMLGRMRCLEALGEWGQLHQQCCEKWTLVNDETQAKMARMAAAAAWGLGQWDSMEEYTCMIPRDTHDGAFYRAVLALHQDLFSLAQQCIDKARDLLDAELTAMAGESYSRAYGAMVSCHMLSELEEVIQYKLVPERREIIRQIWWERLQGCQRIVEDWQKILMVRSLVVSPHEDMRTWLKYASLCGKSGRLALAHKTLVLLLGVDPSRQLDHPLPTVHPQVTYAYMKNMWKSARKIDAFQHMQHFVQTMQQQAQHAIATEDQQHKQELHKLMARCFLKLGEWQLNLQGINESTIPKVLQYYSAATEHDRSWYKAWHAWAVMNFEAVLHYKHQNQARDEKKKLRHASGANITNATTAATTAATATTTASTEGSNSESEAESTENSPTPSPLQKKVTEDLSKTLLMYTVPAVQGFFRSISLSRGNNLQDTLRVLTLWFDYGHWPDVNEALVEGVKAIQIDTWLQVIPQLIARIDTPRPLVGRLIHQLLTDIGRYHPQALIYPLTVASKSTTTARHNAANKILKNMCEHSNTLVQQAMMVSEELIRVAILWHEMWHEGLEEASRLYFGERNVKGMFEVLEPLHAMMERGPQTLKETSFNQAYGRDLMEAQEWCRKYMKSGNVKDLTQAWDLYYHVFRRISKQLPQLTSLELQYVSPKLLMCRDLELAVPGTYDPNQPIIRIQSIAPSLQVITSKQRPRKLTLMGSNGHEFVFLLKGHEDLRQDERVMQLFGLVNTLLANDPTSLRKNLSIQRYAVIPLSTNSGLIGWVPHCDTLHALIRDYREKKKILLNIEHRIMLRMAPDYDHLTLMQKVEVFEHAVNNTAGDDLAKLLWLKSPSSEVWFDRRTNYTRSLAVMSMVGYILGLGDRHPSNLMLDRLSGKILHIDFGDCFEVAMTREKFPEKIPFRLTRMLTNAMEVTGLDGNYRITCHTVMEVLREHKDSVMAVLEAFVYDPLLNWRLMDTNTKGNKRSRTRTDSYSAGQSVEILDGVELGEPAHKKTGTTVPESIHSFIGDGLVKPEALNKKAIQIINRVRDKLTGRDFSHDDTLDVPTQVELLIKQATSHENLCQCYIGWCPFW

| Compound | IC50 (Human mTOR (FLAG-TOR)) [nM] | IC50 (PI3K-α; read-out: IC50 PI3Kα) [nM] | IC50 ([1]; Homo sapiens, LNCaP, 72 h) [nM] | also measured |
| --- | --- | --- | --- | --- |
| O=C(Nc1ccc(-c2nc(NCCO)nc(N3CC4CCC(C3)O4)n2)cc1)Nc1cccnc1 [Example 153, 1-(4-{4-[(2-hydroxyethyl)amino]-6-(8-oxa-3-azabicyclo[3.2.1]oct-3-yl)-1,3,5-triazin-2-yl}phenyl)-3-pyridin-3-ylurea] | 15 | 868 | 4200 |  |
| O=C(Nc1ccc(-c2nc(NC(CO)CO)nc(N3CC4CCC(C3)O4)n2)cc1)Nc1cccnc1 [Example 204, 1-{4-[4-{[2-hydroxy-1-(hydroxymethyl)ethyl]amino}-6-(8-oxa-3-azabicyclo[3.2.1]oct-3-yl)-1,3,5-triazin-2-yl]phenyl}-3-pyridin-3-ylurea] | 3.5 |  | 6000 |  |
| CN1CCN(c2ccc(NC(=O)Nc3ccc(-c4nc(N5CC6CCC(C5)O6)nc(N5C6CCC5COC6)n4)cc3)cc2)CC1 [Example 303, 1-[4-(4-methylpiperazin-1-yl)phenyl]-3-{4-[4-(3-oxa-8-azabicyclo[3.2.1]oct-8-yl)-6-(8-oxa-3-azabicyclo[3.2.1]oct-3-yl)-1,3,5-triazin-2-yl]phenyl}urea] | 17 |  | 0.8 |  |
| CNC(=O)Nc1ccc(-c2nc(N3CC4CCC(C3)O4)nc(N3CC4CCC(C3)O4)n2)cc1 [Example 26, 1-[4-(4,6-di-8-oxa-3-azabicyclo[3.2.1]oct-3-yl-1,3,5-triazin-2-yl)phenyl]-3-methylurea] | 2.5 | 680 | 190 |  |
| O=C(Nc1ccc(-c2nc(Nc3ccc(N4CCNCC4)cc3)nc(N3CC4CCC(C3)O4)n2)cc1)Nc1cccnc1 [Example 208, 1-(4-{4-(8-oxa-3-azabicyclo[3.2.1]oct-3-yl)-6-[(4-piperazin-1-ylphenyl)amino]-1,3,5-triazin-2-yl}phenyl)-3-pyridin-3-ylurea] | 0.5 |  | 50 |  |
| CNC(=O)Nc1ccc(-c2nc(-c3ccc(NC(=O)Nc4cccnc4)cc3)nc(N3CCOCC3)n2)cc1 [Example 467, 1-methyl-3-[4-(4-morpholin-4-yl-6-{4-[(pyridin-3-ylcarbamoyl)amino]phenyl}-1,3,5-triazin-2-yl)phenyl]urea] | < 1 |  | 170 |  |
| O=C(Nc1ccc(-c2nc(N(CCO)CCO)nc(N3CC4CCC(C3)O4)n2)cc1)Nc1cccnc1 [Example 205, 1-(4-{4-[bis(2-hydroxyethyl)amino]-6-(8-oxa-3-azabicyclo[3.2.1]oct-3-yl)-1,3,5-triazin-2-yl}phenyl)-3-pyridin-3-ylurea] | 2 |  | 400 |  |
| NCCCNc1nc(-c2ccc(NC(=O)Nc3cccnc3)cc2)nc(N2CC3CCC(C2)O3)n1 [Example 156, 1-(4-{4-[(3-aminopropyl)amino]-6-(8-oxa-3-azabicyclo[3.2.1]oct-3-yl)-1,3,5-triazin-2-yl}phenyl)-3-pyridin-3-ylurea] | 53 | 746 | 22000 |  |
| O=C(Nc1ccncc1)Nc1ccc(-c2nc(N3CCN(C(=O)c4ccncc4)CC3)nc(N3CC4CCC(C3)O4)n2)cc1 [Example 113, 1-{4-[4-(4-isonicotinoylpiperazin-1-yl)-6-(8-oxa-3-azabicyclo[3.2.1]oct-3-yl)-1,3,5-triazin-2-yl]phenyl}-3-pyridin-4-ylurea] | 3.7 |  | 120 |  |
| CCC(C)Nc1nc(-c2ccc(NC(=O)Nc3cccnc3)cc2)nc(N2CC3CCC(C2)O3)n1 (centres unmarked) [Example 203, 1-{4-[4-(sec-butylamino)-6-(8-oxa-3-azabicyclo[3.2.1]oct-3-yl)-1,3,5-triazin-2-yl]phenyl}-3-pyridin-3-ylurea] | 1 |  | 78 |  |
| FC(F)c1nc2ccccc2n1-c1nc(N2CCOCC2)nc(N2CC3CCC(C2)O3)n1 [Example 139, 2-(difluoromethyl)-1-[4-morpholin-4-yl-6-(8-oxa-3-azabicyclo[3.2.1]oct-3-yl)-1,3,5-triazin-2-yl]-1H-benzimidazole] | 74 |  | 180 |  |
| CC(C)Nc1nc(-c2ccc(NC(=O)NCCO)cc2)nc(N2CC3CCC(C2)O3)n1 [Example 214, 1-(2-hydroxyethyl)-3-(4-{4-[(1-methylethyl)amino]-6-(8-oxa-3-azabicyclo[3.2.1]oct-3-yl)-1,3,5-triazin-2-yl}phenyl)urea] | 2.9 | 2670 | 700 |  |
| O=C(Nc1ccc(-c2nc(N3CC4CCC(C3)O4)nc(N3C[C@@H]4C[C@H]3CN4)n2)cc1)Nc1cccnc1 [Example 206, 1-(4-{4-[(1S,4S)-2,5-diazabicyclo[2.2.1]hept-2-yl]-6-(8-oxa-3-azabicyclo[3.2.1]oct-3-yl)-1,3,5-triazin-2-yl}phenyl)-3-pyridin-3-ylurea] | 56 |  | 5100 |  |
| CC(C)Nc1nc(-c2ccc(NC(=O)NC3CC3)cc2)nc(N2CC3CCC(C2)O3)n1 [Example 213, 1-cyclopropyl-3-(4-{4-[(1-methylethyl)amino]-6-(8-oxa-3-azabicyclo[3.2.1]oct-3-yl)-1,3,5-triazin-2-yl}phenyl)urea] | 9.5 | 5280 | 420 |  |
| CNC(=O)Nc1ccc(-c2nc(-c3ccc(NC(=O)Nc4cccc(C(N)=O)c4)cc3)nc(N3CCOCC3)n2)cc1 [Example 466, 3-({[4-(4-{4-[(methylcarbamoyl)amino]phenyl}-6-morpholin-4-yl-1,3,5-triazin-2-yl)phenyl]carbamoyl}amino) benzamide] | 1 |  |  | IC50 ([1]; MTS cell growth assay, three days after drug treatment, LNCap cells): 420 nM |
| O=C(O)CNC1CCN(c2nc(-c3ccc(NC(=O)Nc4ccncc4)cc3)nc(N3CC4CCC(C3)O4)n2)CC1 [Example 128, 2-(1-(4-(8-oxa-3-azabicyclo[3.2.1]octan-3-yl)-6-(4-(3-pyridin-4-ylureido)phenyl)-1,3,5-triazin-2-yl)piperidin-4-ylamino)acetic acid] | 31 | 1330 | 30000 |  |
| CN1CCN(c2ccc(NC(=O)Nc3ccc(-c4nc(N5C[C@H]6C[C@@H]5CO6)nc(N5C[C@H]6C[C@@H]5CO6)n4)cc3)cc2)CC1 [Example 314, 1-{4-[4,6-di-(1R,4R)-2-oxa-5-azabicyclo[2.2.1]hept-5-yl-1,3,5-triazin-2-yl]phenyl}-3-[4-(4-methylpiperazin-1-yl)phenyl]urea] |  | 1820 |  | IC50 (PI3K-γ): 10000 nM; IC50 [1, 2]: 550 nM |
| CNC(=O)Nc1ccc(-c2nc(Nc3ccc(N4CCN(C)CC4)cc3)nc(N3CC4CCC(C3)O4)n2)cc1 [Example 317, 1-methyl-3-{4-[4-{[4-(4-methylpiperazin-1-yl)phenyl]amino}-6-(8-oxa-3-azabicyclo[3.2.1]oct-3-yl)-1,3,5-triazin-2-yl]phenyl}urea] |  | 216 | 120 | IC50 (PI3K-γ): 6830 nM |
| FC(F)c1nc2ccccc2n1-c1nc(N2CC3CCC(C2)O3)nc(N2CC3CCC(C2)O3)n1 [Example 138, 2-(difluoromethyl)-1-(4,6-di-8-oxa-3-azabicyclo[3.2.1]oct-3-yl-1,3,5-triazin-2-yl)-1H-benzimidazole] | 43.5 |  | 680 |  |
| CN1CCN(c2ccc(NC(=O)Nc3ccc(-c4nc(-c5ccc(NC(=O)NC6CC6)cc5)nc(N5CC6CCC(C5)O6)n4)cc3)cc2)CC1 [Example 146, 1-cyclopropyl-3-(4-{4-[4-({[4-(4-methylpiperazin-1-yl)phenyl]carbamoyl}amino)phenyl]-6-(8-oxa-3-azabicyclo[3.2.1]oct-3-yl)-1,3,5-triazin-2-yl}phenyl)urea] | 3 |  | 5 | IC50 (PI3K-α): > 10000 nM |
| CCN(CC)c1nc(-c2ccc(NC(=O)Nc3cccnc3)cc2)nc(N2CC3CCC(C2)O3)n1 [Example 194, 1-{4-[4-(diethylamino)-6-(8-oxa-3-azabicyclo[3.2.1]oct-3-yl)-1,3,5-triazin-2-yl]phenyl}-3-pyridin-3-ylurea] | 27 |  | 600 |  |
| CN1CCCN(c2nc(-c3ccc(NC(=O)Nc4cccnc4)cc3)nc(N3CC4CCC(C3)O4)n2)C1 [Example 172, 1-{4-[4-(3-methyltetrahydropyrimidin-1(2H)-yl)-6-(8-oxa-3-azabicyclo[3.2.1]oct-3-yl)-1,3,5-triazin-2-yl]phenyl}-3-pyridin-3-ylurea] | 8 | 435 | 9500 |  |
| CNC(=O)Nc1ccc(-c2nc(-c3ccc(NC(=O)Nc4ccncc4)cc3)nc(N3CCOCC3)n2)cc1 [Example 468, 1-methyl-3-[4-(4-morpholin-4-yl-6-{4-[(pyridin-4-ylcarbamoyl)amino]phenyl}-1,3,5-triazin-2-yl)phenyl]urea] | < 1 |  | 50 |  |
| CN(C)CCOc1ccc(NC(=O)Nc2ccc(-c3nc(N4CCSCC4)nc(N4C5CCC4COC5)n3)cc2)cc1 [Example 365, 1-(4-(4-(3-oxa-8-azabicyclo[3.2.1]octan-8-yl)-6-thiomorpholino-1,3,5-triazin-2-yl)phenyl)-3-(4-(2-(dimethylamino)ethoxy)phenyl)urea] | 10 |  | 280 |  |
| 1-(4-{4-[(1-methylethyl)amino]-6-(8-oxa-3-azabicyclo[3.2.1]oct-3-yl)-1,3,5-triazin-2-yl}phenyl)-3-[6-(4-methylpiperazin-1-yl)pyridin-3-yl]urea [Example 216] |  | 521 |  | IC50 (PI3K-γ): 7030 nM; IC50 [1, 2]: 50 nM |
| CCN(C)c1nc(-c2ccc(NC(=O)Nc3cccnc3)cc2)nc(N2CC3CCC(C2)O3)n1 [Example 202, 1-(4-{4-[ethyl(methyl)amino]-6-(8-oxa-3-azabicyclo[3.2.1]oct-3-yl)-1,3,5-triazin-2-yl}phenyl)-3-pyridin-3-ylurea] | 5.5 |  | 700 |  |
| CN1CCN(c2ccc(Nc3nc(-c4ccc(NC(=O)Nc5cccnc5)cc4)nc(N4CC5CCC(C4)O5)n3)cc2)CC1 [Example 207, 1-{4-[4-{[4-(4-methylpiperazin-1-yl)phenyl]amino}-6-(8-oxa-3-azabicyclo[3.2.1]oct-3-yl)-1,3,5-triazin-2-yl]phenyl}-3-pyridin-3-ylurea] | 0.84 |  | 33.3 |  |
